# Assay results: patent US20230159538A1, “PYRROLIDINE-PYRAZOLES AS PYRUVATE KINASE ACTIVATORS” (Global Blood Therapeutics, Inc., priority 2020, published 2023)
# What was measured:
# [1] = biological target: T1, Pyruvate kinase M2 (PKM2) in H1299 cells (Homo sapiens, UniProt P14618); test: Cell based assay for activation of pyruvate kinase M2 in lung carcinoma cell line (NADH/LDH coupled assay on cell lysate); details: PKM2 cellular assay; for AC50: H1299 cells, 90 minutes with compound; for PKM2 % activation: maximal activation level relative to the activation level achieved by AG-348 @ 10 μM
# T1 construct: endogenous in cells; host or cells: H1299
# T1 sequence (P14618 2-531 limits assumed): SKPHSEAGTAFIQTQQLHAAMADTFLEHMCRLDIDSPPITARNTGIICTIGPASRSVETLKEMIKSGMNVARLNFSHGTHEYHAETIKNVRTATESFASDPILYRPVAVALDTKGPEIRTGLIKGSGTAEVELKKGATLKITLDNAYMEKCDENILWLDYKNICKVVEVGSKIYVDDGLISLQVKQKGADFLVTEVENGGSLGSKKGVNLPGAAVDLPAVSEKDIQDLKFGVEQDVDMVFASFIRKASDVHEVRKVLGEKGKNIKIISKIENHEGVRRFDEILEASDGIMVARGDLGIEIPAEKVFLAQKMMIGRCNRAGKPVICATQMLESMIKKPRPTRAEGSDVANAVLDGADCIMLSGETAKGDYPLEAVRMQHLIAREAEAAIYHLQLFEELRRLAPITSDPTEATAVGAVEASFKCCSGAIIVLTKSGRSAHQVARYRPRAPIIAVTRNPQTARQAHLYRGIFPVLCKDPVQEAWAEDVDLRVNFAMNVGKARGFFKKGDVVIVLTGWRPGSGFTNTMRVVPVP
# Method: Cell Based Assay for Activation of Pyruvate Kinase M2 in Lung Carcinoma Cell Line
# H1299 cells were seeded in 96-well plates at 2,000 cells/well (100 uL). Treated plates were incubated overnight at 37° C. with 5% CO2. Compounds were diluted in complete media and added to cells in the presence of 1% DMSO. Cells were incubated with compound for 90 minutes at 37° C. and 5% CO2 before washing three times with PBS to remove residual compound and then lysed in lysis buffer (Cell Signaling). […] PKM2 activity was measured at steady state using a coupled enzyme activation system based on NADH consumption. PKM2 produces pyruvate and the coupled system uses lactate dehydrogenase (LDH) to reduce pyruvate to lactate with the concomitant oxidation of NADH to NAD^+. Conversion of NADH to NAD^+ was monitored using a SPECTROstar Nano plate reader (BMG Labtech) at a wavelength of 340 nm and subtraction of background absorbance measured at 750 nm. The change in NADH absorbance after PEP addition was monitored and slope obtained by subtracting baseline at 750 nm followed by least squares fitting to a simple linear regression model. A 10-point curve was generated to calculate the AC50 values by fitting the rates of NADH consumption against increasing concentration of compound.
# [2] = biological target: T2, Human pyruvate kinase R (PKR) (Homo sapiens, UniProt P30613); test: Biochemical assay for activation of pyruvate kinase R (Kinase-Glo luminescence, ATP generation); details: for AC50: 0.1 nM PKR, 2 mM FBP, 0.3 mM ADP, 0.1 mM PEP; for PKR % activation: maximal activation level relative to the activation level achieved by AG-348 @ 10 μM
# T2 construct: Human pyruvate kinase R (PKR), residues 14-574; 6x-His (N, cleaved yes); 8x-Arg (N, cleaved yes); SUMO (N, cleaved yes); host or cells: E. coli
# T2 sequence (P30613 14-574): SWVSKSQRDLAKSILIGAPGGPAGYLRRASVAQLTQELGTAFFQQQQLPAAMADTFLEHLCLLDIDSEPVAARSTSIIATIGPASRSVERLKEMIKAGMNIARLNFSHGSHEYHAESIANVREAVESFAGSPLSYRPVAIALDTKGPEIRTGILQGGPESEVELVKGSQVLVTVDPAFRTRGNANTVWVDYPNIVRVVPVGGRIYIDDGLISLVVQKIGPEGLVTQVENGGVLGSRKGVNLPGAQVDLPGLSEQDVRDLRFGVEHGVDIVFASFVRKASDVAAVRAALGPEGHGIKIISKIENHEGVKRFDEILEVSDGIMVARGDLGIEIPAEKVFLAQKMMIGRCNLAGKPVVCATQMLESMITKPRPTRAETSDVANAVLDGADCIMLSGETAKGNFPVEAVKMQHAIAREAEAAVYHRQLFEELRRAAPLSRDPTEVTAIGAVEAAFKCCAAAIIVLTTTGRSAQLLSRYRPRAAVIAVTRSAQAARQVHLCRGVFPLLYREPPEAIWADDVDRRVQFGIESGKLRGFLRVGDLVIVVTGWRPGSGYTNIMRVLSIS
# In short: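 E. coli-expressed human PKR, freed of its His-Arg-SUMO tag and purified by anion exchange and size exclusion, was tested for activation. Read-out was luminescent measurement of ATP generation with Kinase-Glo reagent.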
# [3] = biological target: PKR (Mus musculus, UniProt P53657); details: mouse model of beta-thalassemia; cited from earlier work
# Chain of PKR (P53657 whole entry): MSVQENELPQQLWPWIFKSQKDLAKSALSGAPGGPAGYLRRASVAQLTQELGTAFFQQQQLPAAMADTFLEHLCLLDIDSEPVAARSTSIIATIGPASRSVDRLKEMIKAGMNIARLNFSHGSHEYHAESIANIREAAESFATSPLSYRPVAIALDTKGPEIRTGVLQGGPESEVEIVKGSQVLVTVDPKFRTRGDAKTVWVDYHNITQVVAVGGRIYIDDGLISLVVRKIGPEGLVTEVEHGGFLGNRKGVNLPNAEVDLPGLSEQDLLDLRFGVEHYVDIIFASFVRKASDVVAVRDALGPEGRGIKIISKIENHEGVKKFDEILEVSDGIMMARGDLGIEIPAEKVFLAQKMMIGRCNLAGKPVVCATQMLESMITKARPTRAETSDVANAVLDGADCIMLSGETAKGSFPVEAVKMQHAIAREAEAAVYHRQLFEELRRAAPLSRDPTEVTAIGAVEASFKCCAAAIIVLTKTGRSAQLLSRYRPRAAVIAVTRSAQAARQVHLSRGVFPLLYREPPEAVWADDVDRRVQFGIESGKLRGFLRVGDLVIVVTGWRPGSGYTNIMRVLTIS
SMILES,AC50 [1] [nM],PKM2 % activation [1] [%],AC50 [2] [nM],PKR % activation [2] [%],RBC parameters [3]
C[C@@H](O)[C@H](C(=O)N1Cc2cn(S(=O)(=O)c3ccc4c(c3)NCCO4)nc2C1)c1ccccc1 [Compound 24],59,63,78,65,–
"O=C(c1ccc(NS(=O)(=O)c2cccc3cccnc23)cc1)N1CCN(CC2CC2)CC1 [AG-348, Mitapivat]",–,–,–,–,improved
"O=C([C@@H](CO)c1ccccc1)N1Cc2cn(S(=O)(=O)c3ccc(OC(F)F)cc3)nc2C1 (single isomer, unassigned) [Compound 7, (2R)-1-{2-[4-(difluoromethoxy)benzenesulfonyl]-2H,4H,5H,6H-pyrrolo[3,4-c]pyrazol-5-yl}-3-hydroxy-2-phenylpropan-1-one, or (2S)-1-{2-[4-(difluoromethoxy)benzenesulfonyl]-2H,4H,5H,6H-pyrrolo[3,4-c]pyrazol-5-yl}-3-hydroxy-2-phenylpropan-1-one]",22,116,76,137,–
"O=C([C@@H](CO)c1ccccc1)N1Cc2cn(S(=O)(=O)c3ccc4c(c3)NCCO4)nc2C1 (single isomer, unassigned) [Compound 22, (2R)-1-[2-(3,4-dihydro-2H-1,4-benzoxazine-6-sulfonyl)-2H,4H,5H,6H-pyrrolo[3,4-c]pyrazol-5-yl]-3-hydroxy-2-phenylpropan-1-one or (2S)-1-[2-(3,4-dihydro-2H-1,4-benzoxazine-6-sulfonyl)-2H,4H,5H,6H-pyrrolo[3,4-c]pyrazol-5-yl]-3-hydroxy-2-phenylpropan-1-one]",33,79,50,99,–
"CC(O)C(C(=O)N1Cc2cn(S(=O)(=O)c3ccc4ncsc4c3)nc2C1)c1ccccc1 (single isomer, unassigned) [Compound 5]",38,–,82,–,–
"O=C([C@H](O)c1ccccc1)N1Cc2cn(S(=O)(=O)c3ccc4ncsc4c3)nc2C1 [Compound 42, (2R)-1-[2-(1,3-benzothiazole-6-sulfonyl)-2H,4H,5H,6H-pyrrolo[3,4-c]pyrazol-5-yl]-2-hydroxy-2-phenylethan-1-one]",16,–,17,–,–
"N[C@@H](C(=O)N1Cc2cn(S(=O)(=O)c3ccc4ncsc4c3)nc2C1)c1ccccc1F [Compound 17, (2R)-2-amino-1-[2-(1,3-benzothiazole-6-sulfonyl)-2H,4H,5H,6H-pyrrolo[3,4-c]pyrazol-5-yl]-2-(2-fluorophenyl)ethan-1-one]",23,–,24,–,–
"O=C(N1Cc2cn(S(=O)(=O)c3ccc4ncsc4c3)nc2C1)C1(c2ccccc2)COC1 [Compound 40, 6-{[5-(3-phenyloxetane-3-carbonyl)-2H,4H,5H,6H-pyrrolo[3,4-c]pyrazol-2-yl]sulfonyl}-1,3-benzothiazole]",31,–,60,–,–
"Cc1cccc([C@@]2(C(=O)N3Cc4cn(S(=O)(=O)c5ccc6ncsc6c5)nc4C3)CCOC2)n1 (single isomer, unassigned) [Compound 35, 6-({5-[(3S)-3-(6-methylpyridin-2-yl)oxolane-3-carbonyl]-2H,4H,5H,6H-pyrrolo[3,4-c]pyrazol-2-yl}sulfonyl)-1,3-benzothiazole or 6-({5-[(3R)-3-(6-methylpyridin-2-yl)oxolane-3-carbonyl]-2H,4H,5H,6H-pyrrolo[3,4-c]pyrazol-2-yl}sulfonyl)-1,3-benzothiazole]",93,89,62,115,–
"N[C@H](C(=O)N1Cc2cn(S(=O)(=O)c3ccc4ncsc4c3)nc2C1)c1ccccc1 [Compound 14, (2S)-2-amino-1[2-(1,3-benzothiazole-6-sulfonyl)-2H,4H,5H,6H-pyrrolo[3,4-c]pyrazol-5-yl]-2-phenylethan-1-one]",53,–,110,–,–
"N[C@@H](C(=O)N1Cc2cn(S(=O)(=O)c3ccc4ncsc4c3)nc2C1)c1cccc(F)c1 [Compound 32, (2R)-2-amino-1-[2-(1,3-benzothiazole-6-sulfonyl)-2H,4H,5H,6H-pyrrolo[3,4-c]pyrazol-5-yl]-2-(3-fluorophenyl)ethan-1-one]",91,–,38,–,–
"NC(C(=O)N1Cc2cn(S(=O)(=O)c3ccc4ncsc4c3)nc2C1)c1cccc(C(F)(F)F)c1 (racemic) [Compound 26, 2-amino-1-[2-(1,3-benzothiazole-6-sulfonyl)-2H,4H,5H,6H-pyrrolo[3,4-c]pyrazol-5-yl]-2-[3-(trifluoromethyl)phenyl]ethan-1-one]",147,–,72,–,–
"N[C@@H](C(=O)N1Cc2cn(S(=O)(=O)c3ccc(OC(F)F)cc3)nc2C1)c1cccc(F)c1 [Compound 29, (2R)-2-amino-1-{2-[4-(difluoromethoxy)benzenesulfonyl]-2H,4H,5H,6H-pyrrolo[3,4-c]pyrazol-5-yl}-2-(3-fluorophenyl)ethan-1-one]",25,–,92,–,–
"O=C(N1Cc2cn(S(=O)(=O)c3ccc4ncsc4c3)nc2C1)[C@]1(c2ccccn2)CCOC1 (single isomer, unassigned) [Compound 20, 6-({5-[(3S)-3-(pyridin-2-yl)oxolane-3-carbonyl]-2H,4H,5H,6H-pyrrolo[3,4-c]pyrazol-2-yl}sulfonyl)-1,3-benzothiazole or 6-({5-[(3R)-3-(pyridin-2-yl)oxolane-3-carbonyl]-2H,4H,5H,6H-pyrrolo[3,4-c]pyrazol-2-yl}sulfonyl)-1,3-benzothiazole]",14,60,44,113,–
"O=C([C@@H](CO)c1ccccc1)N1Cc2cn(S(=O)(=O)c3ccc4c(c3)OCCO4)nc2C1 (single isomer, unassigned) [Compound 25, (2R)-1-[2-(2,3-dihydro-1,4-benzodioxine-6-sulfonyl)-2H,4H,5H,6H-pyrrolo[3,4-c]pyrazol-5-yl]-3-hydroxy-2-phenylpropan-1-one or (2S)-1-[2-(2,3-dihydro-1,4-benzodioxine-6-sulfonyl)-2H,4H,5H,6H-pyrrolo[3,4-c]pyrazol-5-yl]-3-hydroxy-2-phenylpropan-1-one]",31,42,19,44,–
"C[C@@H](O)[C@H](C(=O)N1Cc2cn(S(=O)(=O)c3ccc4ncsc4c3)nc2C1)c1ccccc1 (single isomer, unassigned) [Compound 3]",45,101,44,104,–
C[C@@H](O)[C@H](C(=O)N1Cc2cn(S(=O)(=O)c3ccc4c(c3)NCCO4)nc2C1)c1ccccc1 [Compound 23],61,116,56,95,–
"O=C([C@@H](CO)c1ccccc1)N1Cc2cn(S(=O)(=O)c3ccc4ncsc4c3)nc2C1 (single isomer, unassigned) [Compound 1, (2R)-1-[2-(1,3-benzothiazole-6-sulfonyl)-2H,4H,5H,6H-pyrrolo[3,4-c]pyrazol-5-yl]-3-hydroxy-2-phenylpropan-1-one or (2S)-1-[2-(1,3-benzothiazole-6-sulfonyl)-2H,4H,5H,6H-pyrrolo[3,4-c]pyrazol-5-yl]-3-hydroxy-2-phenylpropan-1-one]",33,133,28,82,–
"O=S(=O)(c1ccc2c(c1)NCCO2)N1Cc2cn(S(=O)(=O)c3ccc4ncsc4c3)nc2C1 [Compound 12, 6-{[2-(1,3-benzothiazole-6-sulfonyl)-2H,4H,5H,6H-pyrrolo[3,4-c]pyrazol-5-yl]sulfonyl}-3,4-dihydro-2H-1,4-benzoxazine]",23,–,41,–,–
"Cc1cccc([C@@H](N)C(=O)N2Cc3cn(S(=O)(=O)c4ccc5ncsc5c4)nc3C2)c1 [Compound 37, (2R)-2-amino-1-[2-(1,3-benzothiazole-6-sulfonyl)-2H,4H,5H,6H-pyrrolo[3,4-c]pyrazol-5-yl]-2-(3-methylphenyl)ethan-1-one]",17,–,21,–,–
"N[C@@H](C(=O)N1Cc2cn(S(=O)(=O)c3ccc4ncsc4c3)nc2C1)c1ccccc1 [Compound 15, (2R)-2-amino-1-[2-(1,3-benzothiazole-6-sulfonyl)-2H,4H,5H,6H-pyrrolo[3,4-c]pyrazol-5-yl]-2-phenylethan-1-one]",26,–,45,–,–
"Cc1cc(C(N)C(=O)N2Cc3cn(S(=O)(=O)c4ccc5ncsc5c4)nc3C2)ccc1F (racemic) [Compound 39, 2-amino-1-[2-(1,3-benzothiazole-6-sulfonyl)-2H,4H,5H,6H-pyrrolo[3,4-c]pyrazol-5-yl]-2-(4-fluoro-3-methylphenyl)ethan-1-one]",53,–,41,–,–
